Experimental data: PubChem BioAssay (NCI)
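The compound was tested at five concentrations on cells cultured in 96-well plates, with a 48-hour exposure period. GI50 is the concentration that inhibits growth by half. At the TGI there is no net growth.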

Experiments:
Experiment in all cases: DTP human tumour cell line panel, 48 h; in the data active = GI50 below about 0.43 µM; inactive = the rest
BT-549 breast = tested on: BT-549 breast
MOLT-4 leukemia = tested on: MOLT-4 leukemia
A549 NSCLC = tested on: A549 NSCLC
MDA-MB-435 = tested on: MDA-MB-435
UO-31 renal = tested on: UO-31 renal
SK-OV-3 ovarian = tested on: SK-OV-3 ovarian
ACHN renal = tested on: ACHN renal
MALME-3M melanoma = tested on: MALME-3M melanoma
A498 renal = tested on: A498 renal
DU-145 prostate = tested on: DU-145 prostate
K-562 leukemia = tested on: K-562 leukemia
T-47D breast = tested on: T-47D breast
OVCAR-8 ovarian = tested on: OVCAR-8 ovarian
SN12C renal = tested on: SN12C renal
TK-10 renal = tested on: TK-10 renal
SF-539 CNS = tested on: SF-539 CNS
NCI-H226 lung = tested on: NCI-H226 lung
SF-295 CNS = tested on: SF-295 CNS
SF-268 CNS = tested on: SF-268 CNS
OVCAR-5 ovarian = tested on: OVCAR-5 ovarian
SNB-19 CNS = tested on: SNB-19 CNS
MDA-MB-231 breast = tested on: MDA-MB-231 breast
SW-620 colon = tested on: SW-620 colon
SK-MEL-5 melanoma = tested on: SK-MEL-5 melanoma
NCI-H522 lung = tested on: NCI-H522 lung
U251 CNS = tested on: U251 CNS
KM12 colon = tested on: KM12 colon
SK-MEL-28 melanoma = tested on: SK-MEL-28 melanoma
HCT-15 colon = tested on: HCT-15 colon
CAKI-1 renal = tested on: CAKI-1 renal
IGROV1 ovarian = tested on: IGROV1 ovarian
HOP-92 NSCLC = tested on: HOP-92 NSCLC
SR leukemia = tested on: SR leukemia
HT29 colon = tested on: HT29 colon
LOX IMVI melanoma = tested on: LOX IMVI melanoma
NCI-H460 lung = tested on: NCI-H460 lung
UACC-62 melanoma = tested on: UACC-62 melanoma
OVCAR-4 ovarian = tested on: OVCAR-4 ovarian
RXF 393 renal = tested on: RXF 393 renal
HL-60(TB) leukemia = tested on: HL-60(TB) leukemia
RPMI-8226 leukemia = tested on: RPMI-8226 leukemia
EKVX NSCLC = tested on: EKVX NSCLC
NCI-H23 lung = tested on: NCI-H23 lung
PC-3 prostate = tested on: PC-3 prostate
COLO 205 colon = tested on: COLO 205 colon
UACC-257 melanoma = tested on: UACC-257 melanoma
HOP-62 NSCLC = tested on: HOP-62 NSCLC
MCF7 breast = tested on: MCF7 breast
SNB-75 CNS = tested on: SNB-75 CNS
SK-MEL-2 melanoma = tested on: SK-MEL-2 melanoma
HCC-2998 colon = tested on: HCC-2998 colon
HCT-116 colon = tested on: HCT-116 colon
NCI/ADR-RES ovarian = tested on: NCI/ADR-RES ovarian
OVCAR-3 ovarian = tested on: OVCAR-3 ovarian
CCRF-CEM leukemia = tested on: CCRF-CEM leukemia
786-0 renal = tested on: 786-0 renal
HS 578T breast = tested on: HS 578T breast

CC(=O)OC[C@@]12Oc3c(cccc3-c3ccc(O)c4c3O[C@]3(COC(C)=O)C(=C4O)C(=O)C[C@H](C)[C@@H]3OC(C)=O)C(O)=C1C(=O)C[C@H](C)[C@@H]2OC(C)=O
80.8 µM: TGI (SF-295 CNS)
63.5 µM: TGI (NCI-H226 lung)
46.1 µM: TGI (RPMI-8226 leukemia)
56.6 µM: TGI (HL-60(TB) leukemia)
48.9 µM: TGI (COLO 205 colon)
16.9 µM: TGI (SK-MEL-5 melanoma)
88.6 µM: TGI (SK-OV-3 ovarian)
inactive: GI50 (BT-549 breast) 4.54 µM | GI50 (MOLT-4 leukemia) 10.9 µM | GI50 (A549 NSCLC) 4.06 µM | GI50 (MDA-MB-435) 5.3 µM | GI50 (UO-31 renal) 23.9 µM | GI50 (SK-OV-3 ovarian) 25.5 µM | GI50 (ACHN renal) 30.3 µM | GI50 (MALME-3M melanoma) 6.88 µM | GI50 (A498 renal) 3.3 µM | GI50 (DU-145 prostate) 10.8 µM | GI50 (K-562 leukemia) 30.5 µM | GI50 (T-47D breast) 18.5 µM | GI50 (OVCAR-8 ovarian) 6.39 µM | GI50 (SN12C renal) 6.98 µM | GI50 (TK-10 renal) 29.9 µM | GI50 (SF-539 CNS) 3.97 µM | GI50 (NCI-H226 lung) 20.2 µM | GI50 (SF-295 CNS) 6.92 µM | GI50 (SF-268 CNS) 4.32 µM | GI50 (OVCAR-5 ovarian) 29.3 µM | GI50 (SNB-19 CNS) 15.7 µM | GI50 (MDA-MB-231 breast) 25.5 µM | GI50 (SW-620 colon) 33.2 µM | GI50 (SK-MEL-5 melanoma) 4.76 µM | GI50 (NCI-H522 lung) 7.97 µM | GI50 (U251 CNS) 4.08 µM | GI50 (KM12 colon) 27.5 µM | GI50 (SK-MEL-28 melanoma) 6.1 µM | GI50 (HCT-15 colon) 5.45 µM | GI50 (CAKI-1 renal) 28.6 µM | GI50 (IGROV1 ovarian) 7.12 µM | GI50 (HOP-92 NSCLC) 5 µM | GI50 (SR leukemia) 3.68 µM | GI50 (HT29 colon) 7.87 µM | GI50 (LOX IMVI melanoma) 3.53 µM | GI50 (NCI-H460 lung) 4.83 µM | GI50 (UACC-62 melanoma) 5.75 µM | GI50 (OVCAR-4 ovarian) 29.4 µM | GI50 (RXF 393 renal) 9.39 µM | GI50 (HL-60(TB) leukemia) 17.7 µM | GI50 (RPMI-8226 leukemia) 6.08 µM | GI50 (EKVX NSCLC) 24.3 µM | GI50 (NCI-H23 lung) 10.6 µM | GI50 (PC-3 prostate) 15.3 µM | GI50 (COLO 205 colon) 19.7 µM | GI50 (UACC-257 melanoma) 3.4 µM | GI50 (HOP-62 NSCLC) 4.19 µM | GI50 (MCF7 breast) 26.1 µM | GI50 (SNB-75 CNS) 2.53 µM | GI50 (SK-MEL-2 melanoma) 14.7 µM | GI50 (HCC-2998 colon) 6.13 µM | GI50 (HCT-116 colon) 28.3 µM | GI50 (NCI/ADR-RES ovarian) 32.7 µM | GI50 (OVCAR-3 ovarian) 13.9 µM | GI50 (CCRF-CEM leukemia) 5.92 µM | GI50 (786-0 renal) 33.5 µM | GI50 (HS 578T breast) 3.77 µM
31.4 µM: TGI (UACC-257 melanoma)
56.5 µM: TGI (MALME-3M melanoma)
12.9 µM: TGI (LOX IMVI melanoma)
46.4 µM: TGI (NCI-H522 lung)
38.5 µM: TGI (HOP-92 NSCLC)
48.4 µM: TGI (A498 renal)
42.8 µM: TGI (SNB-75 CNS)
> 100 µM: TGI (BT-549 breast) | TGI (MOLT-4 leukemia) | TGI (A549 NSCLC) | TGI (MDA-MB-435) | TGI (UO-31 renal) | TGI (ACHN renal) | TGI (DU-145 prostate) | TGI (K-562 leukemia) | TGI (T-47D breast) | TGI (OVCAR-8 ovarian) | TGI (SN12C renal) | TGI (TK-10 renal) | TGI (SF-539 CNS) | TGI (SF-268 CNS) | TGI (OVCAR-5 ovarian) | TGI (SNB-19 CNS) | TGI (MDA-MB-231 breast) | TGI (SW-620 colon) | TGI (U251 CNS) | TGI (KM12 colon) | TGI (SK-MEL-28 melanoma) | TGI (HCT-15 colon) | TGI (CAKI-1 renal) | TGI (IGROV1 ovarian) | TGI (SR leukemia) | TGI (HT29 colon) | TGI (NCI-H460 lung) | TGI (UACC-62 melanoma) | TGI (OVCAR-4 ovarian) | TGI (EKVX NSCLC) | TGI (NCI-H23 lung) | TGI (PC-3 prostate) | TGI (HOP-62 NSCLC) | TGI (MCF7 breast) | TGI (HCC-2998 colon) | TGI (HCT-116 colon) | TGI (NCI/ADR-RES ovarian) | TGI (OVCAR-3 ovarian) | TGI (CCRF-CEM leukemia) | TGI (786-0 renal) | TGI (HS 578T breast)
50.5 µM: TGI (RXF 393 renal)
63.9 µM: TGI (SK-MEL-2 melanoma)
